From patent US8486951B2 (Deciphera Pharmaceuticals, LLC, priority 2008, dated 2013)

Key:
[1] = test system: EBC-1 cells; assay: EBC-1 Cell Proliferation Assay (resazurin); format: cell-based; conditions: Homo sapiens, 67 h + 5 h resazurin, read-out: EBC1 Cell Proliferation
Procedure: EBC-1 cells (catalog #JCRB0820) were obtained from the Japan Health Science Research Resources Bank, Osaka, Japan. Briefly, cells were grown in DMEM supplemented with 10% characterized fetal bovine serum (Invitrogen, Carlsbad, Calif.) at 37 degrees Celsius, 5% CO2, 95% humidity. Cells were allowed to expand until reaching 70-95% confluency at which point they were subcultured or harvested for assay use.
EBC-1 Cell Proliferation Assay
A serial dilution of test compound was dispensed into a 96-well black clear bottom plate (Corning, Corning, N.Y.). For each cell line, five thousand cells were added per well in 200 μL complete growth medium. Plates were incubated for 67 hours at 37 degrees Celsius, 5% CO2, 95% humidity. […] Data was analyzed using Prism software (Graphpad, San Diego, Calif.) to calculate IC50 values.

[2] = molecular target: T1, PDGFRα kinase (Homo sapiens, UniProt P16234); assay: PDGFRα Kinase Assay; format: biochemical; conditions: read-out: PDGFRa Enzyme Assay
T1 construct: purchased Invitrogen
Procedure: (§1) Activity of PDGFRα kinase was determined by following the production of ADP from the kinase reaction through coupling with the pyruvate kinase/lactate dehydrogenase system. In this assay, the oxidation of NADH (thus the decrease at A340 nm) was continuously monitored spectrophometrically. The reaction mixture (100 μl) contained PDGFRα (Invitrogen, 10 nM), polyE4Y (1 mg/ml), MgCl2 (10 mM), pyruvate kinase (4 units), lactate dehydrogenase (0.7 units), phosphoenol pyruvate (1 mM) and NADH (0.28 mM) and ATP (500 μM) in a 90 mM Tris buffer containing 0.2% octyl-glucoside and 1% DMSO, pH 7.5. The inhibition reaction was started by mixing serial diluted test compound with the above reaction mixture. The absorption at 340 nm was monitored continuously for 4 hours at 30° C. on a Polarstar Optima or Synergy 2 plate reader. The reaction rate was calculated using the 2 to 3 h time frame. Percent inhibition was obtained by comparison of reaction rate with that of a control (i.e. with no test compound). IC50 values were calculated from a series of percent inhibition values determined at a range of inhibitor concentrations using software routines as implemented in the GraphPad Prism software package.

[3] = molecular target: T2, c-MET kinase (Seq. ID no. 2) (Homo sapiens, UniProt P08581); assay: c-MET Kinase Assay (ADP production, pyruvate kinase/lactate dehydrogenase coupled); format: biochemical; conditions: read-out: cMET Enzyme Assay
T2 construct: purchased Invitrogen PV3143
Procedure: In this assay, the oxidation of NADH (thus the decrease at A340 nm) was continuously monitored spectrophometrically. […] Test compounds were incubated with C-Met (Seq. ID no. 2) and other reaction reagents at 22° C. for 0.5 h before ATP (100 μM) was added to start the reaction. The absorption at 340 nm was monitored continuously for 2 hours at 30° C. on Polarstar Optima plate reader (BMG). The reaction rate was calculated using the 1.0 to 2.0 h time frame. Percent inhibition was obtained by comparison of reaction rate with that of a control (i.e. with no test compound). IC50 values were calculated from a series of percent inhibition values determined at a range of inhibitor concentrations using software routines as implemented in the GraphPad Prism software package.

[4] = molecular target: T3, PDGFRβ (Homo sapiens, UniProt P09619); assay: PDGFRβ Kinase Assay; format: biochemical; conditions: read-out: PDGFRb Enzyme Assay
T3 construct: purchased Invitrogen

[5] = molecular target: T4, c-KIT kinase (Seq. ID no. 1) (Homo sapiens, UniProt P10721); assay: c-KIT kinase Assay (ADP production, pyruvate kinase/lactate dehydrogenase coupled); format: biochemical; conditions: read-out: cKIT Enzyme Assay
T4 construct: purchased ProQinase
Procedure: In this assay, the oxidation of NADH (thus the decrease at A340 nm) was continuously monitored spectrophometrically. […] The absorption at 340 nm was monitored continuously for 0.5 hours at 30° C. on Polarstar Optima plate reader (BMG). The reaction rate was calculated using the 0 to 0.5 h time frame. Percent inhibition was obtained by comparison of reaction rate with that of a control (i.e. with no test compound). IC50 values were calculated from a series of percent inhibition values determined at a range of inhibitor concentrations using software routines as implemented in the GraphPad Prism software package.

[6] = molecular target: KDR kinase (Seq ID No. 3) (Homo sapiens, UniProt P35968, DEL940-989/E990V); assay: KDR Kinase Assay (assays K1, K2, K3); format: biochemical; conditions: assay variant K1, K2 or K3 not stated; read-out: KDR Enzyme Assay
[7] = molecular target: T5, FMS kinase (Homo sapiens, UniProt P07333); assay: FMS Kinase Assay; format: biochemical; conditions: read-out: FMS Enzyme Assay
T5 construct: purchased Invitrogen or Millipore
Procedure: as §1, with “In” for “Activity of PDGFRα kinase was determined by following the production of ADP from the kinase reaction through coupling with the pyruvate kinase/lactate dehydrogenase system. In”, “FMS (purchased from Invitrogen or Millipore, 6” for “PDGFRα (Invitrogen, 10”

T2 sequence (P08581 with tags, fused parts or gaps): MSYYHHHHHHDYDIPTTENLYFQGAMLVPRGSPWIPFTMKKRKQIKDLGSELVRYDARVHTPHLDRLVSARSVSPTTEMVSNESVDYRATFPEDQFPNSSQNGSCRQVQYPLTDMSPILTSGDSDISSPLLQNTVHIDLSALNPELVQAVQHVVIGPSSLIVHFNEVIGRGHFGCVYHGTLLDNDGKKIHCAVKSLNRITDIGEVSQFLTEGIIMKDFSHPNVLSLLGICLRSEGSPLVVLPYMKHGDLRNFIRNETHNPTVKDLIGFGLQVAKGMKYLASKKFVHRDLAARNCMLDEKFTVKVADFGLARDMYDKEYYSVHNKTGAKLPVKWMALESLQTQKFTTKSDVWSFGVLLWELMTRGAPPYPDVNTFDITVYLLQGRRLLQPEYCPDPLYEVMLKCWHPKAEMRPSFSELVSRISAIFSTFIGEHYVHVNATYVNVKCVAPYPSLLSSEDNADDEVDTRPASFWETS
T1 sequence (P16234 24-1089): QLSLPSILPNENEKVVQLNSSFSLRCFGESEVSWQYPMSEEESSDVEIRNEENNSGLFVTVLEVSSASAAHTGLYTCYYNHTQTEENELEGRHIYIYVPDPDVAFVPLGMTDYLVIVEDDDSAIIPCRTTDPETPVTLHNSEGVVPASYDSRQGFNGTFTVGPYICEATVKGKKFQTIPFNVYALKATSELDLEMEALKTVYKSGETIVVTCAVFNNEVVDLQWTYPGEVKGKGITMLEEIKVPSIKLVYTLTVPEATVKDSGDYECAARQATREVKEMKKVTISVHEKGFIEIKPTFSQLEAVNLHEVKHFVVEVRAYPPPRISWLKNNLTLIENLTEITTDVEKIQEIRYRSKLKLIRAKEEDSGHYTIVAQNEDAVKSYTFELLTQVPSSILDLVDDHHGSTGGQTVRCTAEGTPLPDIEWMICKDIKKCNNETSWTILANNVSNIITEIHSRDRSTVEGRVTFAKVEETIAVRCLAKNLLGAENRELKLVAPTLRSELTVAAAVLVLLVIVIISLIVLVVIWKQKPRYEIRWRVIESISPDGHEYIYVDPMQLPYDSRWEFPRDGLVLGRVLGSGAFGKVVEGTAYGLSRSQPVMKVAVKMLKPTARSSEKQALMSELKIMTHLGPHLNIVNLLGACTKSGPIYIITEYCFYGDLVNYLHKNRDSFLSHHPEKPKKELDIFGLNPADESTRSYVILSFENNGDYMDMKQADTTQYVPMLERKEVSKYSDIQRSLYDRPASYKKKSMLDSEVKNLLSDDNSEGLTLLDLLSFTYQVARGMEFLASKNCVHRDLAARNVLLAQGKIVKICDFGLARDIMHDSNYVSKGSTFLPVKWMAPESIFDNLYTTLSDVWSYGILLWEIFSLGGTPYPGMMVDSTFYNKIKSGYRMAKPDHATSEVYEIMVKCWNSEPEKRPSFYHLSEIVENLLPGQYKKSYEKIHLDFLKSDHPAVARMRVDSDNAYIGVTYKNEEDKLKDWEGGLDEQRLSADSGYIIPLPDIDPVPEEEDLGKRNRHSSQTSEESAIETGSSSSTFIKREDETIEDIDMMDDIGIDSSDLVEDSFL
Sequence of KDR kinase (Seq ID No. 3) (P35968 with tags, fused parts or gaps DEL940-989/E990V): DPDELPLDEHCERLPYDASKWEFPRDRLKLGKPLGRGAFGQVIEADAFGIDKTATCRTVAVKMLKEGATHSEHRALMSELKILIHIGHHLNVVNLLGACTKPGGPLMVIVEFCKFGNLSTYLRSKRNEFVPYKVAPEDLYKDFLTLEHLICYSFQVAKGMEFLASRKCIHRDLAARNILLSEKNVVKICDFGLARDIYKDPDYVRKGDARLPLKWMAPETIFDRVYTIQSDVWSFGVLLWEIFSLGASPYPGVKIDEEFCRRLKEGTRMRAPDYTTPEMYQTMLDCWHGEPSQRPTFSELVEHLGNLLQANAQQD
T4 sequence (P10721 with tags, fused parts or gaps): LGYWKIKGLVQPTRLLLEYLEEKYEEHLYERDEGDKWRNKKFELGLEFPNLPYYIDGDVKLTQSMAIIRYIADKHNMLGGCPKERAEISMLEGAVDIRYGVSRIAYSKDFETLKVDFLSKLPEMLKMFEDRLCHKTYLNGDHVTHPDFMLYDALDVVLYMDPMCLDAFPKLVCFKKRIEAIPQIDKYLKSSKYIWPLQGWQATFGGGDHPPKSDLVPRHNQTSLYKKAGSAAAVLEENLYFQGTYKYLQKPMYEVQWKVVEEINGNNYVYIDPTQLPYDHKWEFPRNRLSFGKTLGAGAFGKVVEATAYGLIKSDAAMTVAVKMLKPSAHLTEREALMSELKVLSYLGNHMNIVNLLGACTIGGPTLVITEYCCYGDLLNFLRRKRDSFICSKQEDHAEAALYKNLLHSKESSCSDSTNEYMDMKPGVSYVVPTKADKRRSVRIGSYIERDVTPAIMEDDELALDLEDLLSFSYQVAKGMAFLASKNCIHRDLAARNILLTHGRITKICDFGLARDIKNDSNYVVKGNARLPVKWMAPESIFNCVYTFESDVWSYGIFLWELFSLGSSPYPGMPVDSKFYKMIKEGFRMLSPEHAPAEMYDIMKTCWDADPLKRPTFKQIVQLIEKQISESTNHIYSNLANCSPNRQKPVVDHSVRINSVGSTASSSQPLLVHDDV
T5 sequence (P07333 20-972): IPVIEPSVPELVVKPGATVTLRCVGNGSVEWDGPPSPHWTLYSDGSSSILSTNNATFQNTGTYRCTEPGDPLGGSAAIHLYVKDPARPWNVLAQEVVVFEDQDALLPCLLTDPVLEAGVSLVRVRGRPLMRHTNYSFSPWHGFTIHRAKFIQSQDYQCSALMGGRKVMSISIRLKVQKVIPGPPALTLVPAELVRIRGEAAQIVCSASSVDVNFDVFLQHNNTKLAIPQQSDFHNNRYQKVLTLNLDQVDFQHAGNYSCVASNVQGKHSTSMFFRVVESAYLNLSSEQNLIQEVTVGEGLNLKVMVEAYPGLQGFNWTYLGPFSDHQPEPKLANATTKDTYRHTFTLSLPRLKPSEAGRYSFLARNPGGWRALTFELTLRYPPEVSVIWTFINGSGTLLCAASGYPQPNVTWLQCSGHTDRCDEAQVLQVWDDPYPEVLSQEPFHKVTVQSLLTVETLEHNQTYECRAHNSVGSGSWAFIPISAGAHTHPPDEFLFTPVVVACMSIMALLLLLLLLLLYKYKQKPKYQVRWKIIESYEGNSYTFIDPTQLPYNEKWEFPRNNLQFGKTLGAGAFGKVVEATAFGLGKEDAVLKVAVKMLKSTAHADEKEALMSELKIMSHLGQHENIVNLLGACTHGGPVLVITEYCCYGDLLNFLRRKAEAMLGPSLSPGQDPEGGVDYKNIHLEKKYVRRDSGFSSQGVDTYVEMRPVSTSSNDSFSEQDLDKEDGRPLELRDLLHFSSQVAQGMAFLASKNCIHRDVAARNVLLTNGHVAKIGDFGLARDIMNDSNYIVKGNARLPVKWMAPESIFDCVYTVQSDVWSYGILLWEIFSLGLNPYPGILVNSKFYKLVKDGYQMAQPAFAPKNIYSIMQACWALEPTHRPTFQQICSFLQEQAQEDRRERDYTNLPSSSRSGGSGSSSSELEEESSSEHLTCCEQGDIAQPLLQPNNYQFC
T3 sequence (P09619 33-1106): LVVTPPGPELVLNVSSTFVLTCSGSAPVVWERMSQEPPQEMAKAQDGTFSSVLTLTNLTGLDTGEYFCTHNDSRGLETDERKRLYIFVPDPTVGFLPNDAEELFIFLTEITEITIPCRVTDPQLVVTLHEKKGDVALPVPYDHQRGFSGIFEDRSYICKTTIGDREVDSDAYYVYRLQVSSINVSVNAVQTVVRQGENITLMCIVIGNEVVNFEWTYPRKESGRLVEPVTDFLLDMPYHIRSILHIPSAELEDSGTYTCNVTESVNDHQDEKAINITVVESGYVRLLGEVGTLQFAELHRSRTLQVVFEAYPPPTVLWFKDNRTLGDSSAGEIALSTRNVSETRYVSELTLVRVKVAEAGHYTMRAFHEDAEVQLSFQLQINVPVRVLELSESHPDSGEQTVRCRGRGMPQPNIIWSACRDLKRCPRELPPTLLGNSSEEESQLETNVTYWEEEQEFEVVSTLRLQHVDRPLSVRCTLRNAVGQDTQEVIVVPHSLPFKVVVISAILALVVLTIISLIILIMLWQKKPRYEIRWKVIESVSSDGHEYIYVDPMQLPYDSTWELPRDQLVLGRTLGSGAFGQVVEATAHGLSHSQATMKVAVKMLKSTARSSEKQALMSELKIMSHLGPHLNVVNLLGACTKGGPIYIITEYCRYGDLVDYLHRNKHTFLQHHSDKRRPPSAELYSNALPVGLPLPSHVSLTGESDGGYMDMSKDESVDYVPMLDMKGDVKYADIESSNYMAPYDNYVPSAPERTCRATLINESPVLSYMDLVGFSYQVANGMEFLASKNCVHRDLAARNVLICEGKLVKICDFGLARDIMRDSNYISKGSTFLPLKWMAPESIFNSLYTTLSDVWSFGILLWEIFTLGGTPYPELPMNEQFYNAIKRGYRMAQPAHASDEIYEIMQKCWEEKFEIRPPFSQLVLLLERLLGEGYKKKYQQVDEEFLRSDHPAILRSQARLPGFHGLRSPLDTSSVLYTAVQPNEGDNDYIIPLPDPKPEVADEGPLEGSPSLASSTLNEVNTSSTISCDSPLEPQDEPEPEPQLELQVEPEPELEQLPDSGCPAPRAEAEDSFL

| SMILES | IC50 [1] [µM] | IC50 [2] [µM] | IC50 [3] [µM] | IC50 [4] [µM] | IC50 [5] [µM] | IC50 [6] [µM] | IC50 [7] [µM] |
| --- | --- | --- | --- | --- | --- | --- | --- |
| Cn1cc(-c2cc(Oc3ccc(NC(=O)C4(C(=O)Nc5ccc(F)cc5)CC4)cc3Cl)ccn2)cn1 [Example 30, N-(3-chloro-4-(2-(1-methyl-1H-pyrazol-4-yl)pyridin-4-yloxy)phenyl)-N′-(4-fluorophenyl)cyclopropane-1,1-dicarboxamide] | < 2 | < 2 | < 0.2 | < 10 | < 0.2 |  |  |
| Cn1cc(-c2cc(Oc3ccc(NC(=O)C4(C(=O)Nc5cccc(C(F)(F)F)c5)CC4)cc3F)ccn2)cn1 [Example 6, N-(3-fluoro-4-(2-(1-methyl-1H-pyrazol-4-yl)pyridin-4-yloxy)phenyl)-N′-(3-(trifluoromethyl)phenyl)cyclopropane-1,1-dicarboxamide] | < 10 | < 2 |  | < 10 | < 10 | < 0.2 | < 2 |
| C[C@H](NC(=O)C1(C(=O)Nc2ccc(Oc3ccnc(-c4cnn(C)c4)c3)c(F)c2)CC1)c1ccccc1 [Example 16, N-(3-fluoro-4-(2-(1-methyl-1H-pyrazol-4-yl)pyridin-4-yloxy)phenyl)-N′-((S)-1-phenylethyl)cyclopropane-1,1-dicarboxamide] | < 10 | < 2 |  | < 10 | < 0.2 | < 10 | < 0.2 |
| O=C(Nc1ccc(F)cc1)C1(C(=O)Nc2ccc(Oc3ccnc(-c4cn[nH]c4)c3)c(F)c2)CC1 [Example 31, N-(4-(2-(1H-pyrazol-4-yl)pyridin-4-yloxy)-3-fluorophenyl)-N′-(4-fluorophenyl)cyclopropane-1,1-dicarboxamide] | < 2 |  | < 0.2 |  |  |  |  |
| Cn1cc(-c2cc(Oc3cc(F)c(NC(=O)NC(=O)Cc4ccc(F)cc4)cc3Cl)ccn2)cn1 [Example 46, 1-(5-chloro-2-fluoro-4-(2-(1-methyl-1H-pyrazol-4-yl)pyridin-4-yloxy)phenyl)-3-(2-(4-fluorophenyl)acetyl)urea] | < 0.2 | < 0.2 | < 0.2 | < 0.2 | < 0.2 | < 2 |  |
| Cc1nn(C)cc1-c1cc(Oc2cc(F)c(NC(=O)C3(C(=O)Nc4ccc(F)cc4)CC3)cc2F)ccn1 [Example 49, N-(4-(2-(1,3-Dimethyl-1H-pyrazol-4-yl)pyridin-4-yloxy)-2,5-difluorophenyl)-N′-(4-fluorophenyl)cyclopropane-1,1-dicarboxamide] | < 2 | < 10 | < 0.2 | < 10 | < 0.2 | < 2 | < 2 |
| O=C(Nc1ccc(F)cc1)C1(C(=O)Nc2ccc(Oc3ccnc(-c4cnn(CCO)c4)c3)c(F)c2)CC1 [Example 21, N-(3-fluoro-4-(2-(1-(2-hydroxyethyl)-1H-pyrazol-4-yl)pyridin-4-yloxy)phenyl)-N′-(4-fluorophenyl)cyclopropane-1,1-dicarboxamide] | < 2 | < 2 | < 2 | < 10 | < 2 | < 2 |  |
| Cc1c(-c2cc(Oc3cc(F)c(NC(=O)C4(C(=O)Nc5ccc(F)cc5)CC4)cc3F)ccn2)cnn1C [Example 50, N-(4-(2-(1,5-dimethyl-1H-pyrazol-4-yl)pyridin-4-yloxy)-2,5-difluorophenyl)-N′-(4-fluorophenyl)cyclopropane-1,1-dicarboxamide] | < 0.2 | < 2 | < 0.2 | < 10 | < 0.2 | < 0.2 |  |
| Cc1cc(NC(=O)C2(C(=O)Nc3ccc(F)cc3)CC2)c(F)cc1Oc1ccnc(-c2cnn(C)c2)c1 [Example 51, N-(2-fluoro-5-methyl-4-(2-(1-methyl-1H-pyrazol-4-yl)pyridin-4-yloxy)phenyl)-N′-(4-fluorophenyl)cyclopropane-1,1-dicarboxamide] | < 2 | < 2 | < 0.2 | < 2 | < 0.2 | < 2 | < 0.2 |
| Cn1cc(-c2cc(Oc3cc(F)c(NC(=O)C4(C(=O)Nc5ccc(F)cc5)CC4)cc3Cl)ccn2)cn1 [Example 47, N-(5-chloro-2-fluoro-4-(2-(1-methyl-1H-pyrazol-4-yl)pyridin-4-yloxy)phenyl)-N′-(4-fluorophenyl)cyclopropane-1,1-dicarboxamide] | < 0.2 | < 0.2 | < 0.2 | < 10 | < 0.2 | < 2 |  |
| Cc1ccc(NC(=O)C2(C(=O)Nc3ccc(Oc4ccnc(-c5cnn(C)c5)c4)cc3F)CC2)cc1 [Example 23, N-(2-fluoro-4-(2-(1-methyl-1H-pyrazol-4-yl)pyridin-4-yloxy)phenyl)-N′-p-tolylcyclopropane-1,1-dicarboxamide] | < 2 | < 10 | < 2 | < 10 | < 10 | < 10 | < 2 |
| Cn1cc(-c2cc(Oc3ccc(NC(=O)C4(C(=O)Nc5ccc(Cl)cc5)CC4)c(F)c3)ccn2)cn1 [Example 22, N-(4-chlorophenyl)-N′-(2-fluoro-4-(2-(1-methyl-1H-pyrazol-4-yl)pyridin-4-yloxy)phenyl)cyclopropane-1,1-dicarboxamide] | < 2 | < 2 | < 2 | < 2 | < 2 | < 2 | < 0.2 |
